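Interpolation was linear, between the two tested concentrations surrounding the appropriate level; five concentrations were tested over 48 hours in 96-well plates. GI50: concentration for 50% inhibition of growth. TGI: concentration producing complete growth inhibition.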
How the values were obtained:
Experiment in all cases: DTP human tumour cell line panel, 48 h
SNB-19 CNS = system: SNB-19 CNS
PC-3 prostate = system: PC-3 prostate
A549 NSCLC = system: A549 NSCLC
MDA-MB-231 breast = system: MDA-MB-231 breast
HCT-15 colon = system: HCT-15 colon
NCI-H522 lung = system: NCI-H522 lung
MOLT-4 leukemia = system: MOLT-4 leukemia
HOP-62 NSCLC = system: HOP-62 NSCLC
OVCAR-4 ovarian = system: OVCAR-4 ovarian
OVCAR-8 ovarian = system: OVCAR-8 ovarian
NCI-H23 lung = system: NCI-H23 lung
SF-295 CNS = system: SF-295 CNS
T-47D breast = system: T-47D breast
HOP-92 NSCLC = system: HOP-92 NSCLC
M14 melanoma = system: M14 melanoma
MCF7 breast = system: MCF7 breast
SK-MEL-5 melanoma = system: SK-MEL-5 melanoma
ACHN renal = system: ACHN renal
HCC-2998 colon = system: HCC-2998 colon
SW-620 colon = system: SW-620 colon
EKVX NSCLC = system: EKVX NSCLC
RPMI-8226 leukemia = system: RPMI-8226 leukemia
786-0 renal = system: 786-0 renal
UO-31 renal = system: UO-31 renal
RXF 393 renal = system: RXF 393 renal
UACC-62 melanoma = system: UACC-62 melanoma
CAKI-1 renal = system: CAKI-1 renal
SN12C renal = system: SN12C renal
UACC-257 melanoma = system: UACC-257 melanoma
DU-145 prostate = system: DU-145 prostate
K-562 leukemia = system: K-562 leukemia
CCRF-CEM leukemia = system: CCRF-CEM leukemia
HS 578T breast = system: HS 578T breast
OVCAR-5 ovarian = system: OVCAR-5 ovarian
IGROV1 ovarian = system: IGROV1 ovarian
HT29 colon = system: HT29 colon
U251 CNS = system: U251 CNS
SF-268 CNS = system: SF-268 CNS
BT-549 breast = system: BT-549 breast
MDA-MB-435 = system: MDA-MB-435
KM12 colon = system: KM12 colon
LOX IMVI melanoma = system: LOX IMVI melanoma
NCI/ADR-RES ovarian = system: NCI/ADR-RES ovarian
SK-MEL-2 melanoma = system: SK-MEL-2 melanoma
SK-OV-3 ovarian = system: SK-OV-3 ovarian
OVCAR-3 ovarian = system: OVCAR-3 ovarian
SNB-75 CNS = system: SNB-75 CNS
SR leukemia = system: SR leukemia
A498 renal = system: A498 renal
HCT-116 colon = system: HCT-116 colon
NCI-H460 lung = system: NCI-H460 lung
NCI-H226 lung = system: NCI-H226 lung
TK-10 renal = system: TK-10 renal
SK-MEL-28 melanoma = system: SK-MEL-28 melanoma
SF-539 CNS = system: SF-539 CNS
COLO 205 colon = system: COLO 205 colon

## CCOC(=O)c1sc(=S)c2c(C(=O)OCC)c(C(=O)OCC)sc2c1C(=O)OCC
SNB-19 CNS
  GI50: 32.2 µM
  TGI: > 100 µM
PC-3 prostate
  GI50: 8.17 µM
  TGI: 21.2 µM
A549 NSCLC
  GI50: 16.4 µM
  TGI: 42.8 µM
MDA-MB-231 breast
  GI50: 14.6 µM
  TGI: 32.7 µM
HCT-15 colon
  GI50: 14.4 µM
  TGI: 28.5 µM
NCI-H522 lung
  GI50: 10.6 µM
  TGI: 26.4 µM
MOLT-4 leukemia
  GI50: 15.9 µM
  TGI: 42.3 µM
HOP-62 NSCLC
  GI50: 17.6 µM
  TGI: 33.4 µM
OVCAR-4 ovarian
  GI50: 20.7 µM
  TGI: 56.9 µM
OVCAR-8 ovarian
  GI50: 17.8 µM
  TGI: 40 µM
NCI-H23 lung
  GI50: 17.4 µM
  TGI: 35.5 µM
SF-295 CNS
  GI50: 31.4 µM
  TGI: 94.8 µM
T-47D breast
  GI50: 23.7 µM
  TGI: 95.5 µM
HOP-92 NSCLC
  GI50: 10.3 µM
  TGI: 23 µM
M14 melanoma
  GI50: 16.8 µM
  TGI: 32.6 µM
MCF7 breast
  GI50: 15.2 µM
  TGI: 29.9 µM
SK-MEL-5 melanoma
  GI50: 16.4 µM
  TGI: 32.9 µM
ACHN renal
  GI50: 16.6 µM
  TGI: 39.4 µM
HCC-2998 colon
  GI50: 13.1 µM
  TGI: 28.7 µM
SW-620 colon
  GI50: 23.7 µM
  TGI: 56.4 µM
EKVX NSCLC
  GI50: 21.5 µM
  TGI: 43.4 µM
RPMI-8226 leukemia
  GI50: 7.88 µM
  TGI: 28 µM
786-0 renal
  GI50: 20.4 µM
  TGI: 44.5 µM
UO-31 renal
  GI50: 15.1 µM
  TGI: 30.9 µM
RXF 393 renal
  GI50: 13 µM
  TGI: 39.4 µM
UACC-62 melanoma
  GI50: 12.1 µM
  TGI: 26.9 µM
CAKI-1 renal
  GI50: 26.5 µM
  TGI: 93.9 µM
SN12C renal
  GI50: 11.2 µM
  TGI: 26.7 µM
UACC-257 melanoma
  GI50: 15.1 µM
  TGI: 39 µM
DU-145 prostate
  GI50: 17.4 µM
  TGI: 39 µM
K-562 leukemia
  GI50: 10.6 µM
  TGI: 25.1 µM
CCRF-CEM leukemia
  GI50: 19.1 µM
  TGI: 61.7 µM
HS 578T breast
  GI50: 17.7 µM
  TGI: 47.3 µM
OVCAR-5 ovarian
  GI50: 17.6 µM
  TGI: 35.7 µM
IGROV1 ovarian
  GI50: 13.4 µM
  TGI: 29.8 µM
HT29 colon
  GI50: 28 µM
  TGI: > 100 µM
U251 CNS
  GI50: 12.7 µM
  TGI: 26.5 µM
SF-268 CNS
  GI50: 16.4 µM
  TGI: 33.9 µM
BT-549 breast
  GI50: 21.5 µM
  TGI: 45.4 µM
MDA-MB-435
  GI50: 27.4 µM
  TGI: 67.2 µM
KM12 colon
  GI50: 18.4 µM
  TGI: 44.5 µM
LOX IMVI melanoma
  GI50: 14.1 µM
  TGI: 27.9 µM
NCI/ADR-RES ovarian
  GI50: 17.3 µM
  TGI: 35.9 µM
SK-MEL-2 melanoma
  GI50: 21.2 µM
  TGI: 44.7 µM
SK-OV-3 ovarian
  GI50: 43.3 µM
  TGI: > 100 µM
OVCAR-3 ovarian
  GI50: 16 µM
  TGI: 68 µM
SNB-75 CNS
  GI50: 40.3 µM
  TGI: > 100 µM
SR leukemia
  GI50: 15 µM
  TGI: 35.4 µM
A498 renal
  GI50: 18.2 µM
  TGI: 33.9 µM
HCT-116 colon
  GI50: 18 µM
  TGI: 40 µM
NCI-H460 lung
  GI50: 21.4 µM
  TGI: 51.2 µM
NCI-H226 lung
  GI50: 10.9 µM
  TGI: 26.7 µM
TK-10 renal
  GI50: 5.85 µM
  TGI: 39.4 µM
SK-MEL-28 melanoma
  GI50: 21.3 µM
  TGI: 54.7 µM
SF-539 CNS
  GI50: 18.9 µM
  TGI: 36.1 µM
COLO 205 colon
  GI50: 27.6 µM
  TGI: > 100 µM

From PubChem BioAssay (NCI)
